Test results reported in patent US8835484B2, “Naphthocyanines for use as contrast agents” (Alamedics GmbH & Co. KG, priority 2010, dated 2014).
Structures can show the parent of a compound that is named as a salt.

Assays:
[1] = Fluorescence quantum yield; assay type: physicochemical; conditions: CHCl3; Reference: S-13 with Φ=1.00
Excerpt: IR spectra: Perkin Elmer Spectrum BX II, using a diamond anvil cell; UV/Vis spectra: Varian Cary 5000 and Bruins Omega 20; fluorescence spectra: Varian Eclispe; NMR spectroscopy: Varian Vnmrs 600 (600 MHz, 400 MHz, 200 MHz); mass spectrometry: Thermo Finnigan LQT FT.

[2] = test system: lens capsule; experiment: Dye tests on porcine eyes (lens capsule staining); design: key: +++: visually assessed very strong coloration; ++: good coloration; +: satisfactory coloration; −: weak or absent coloration; conditions: incubated, rinsed after one minute
Method: For the dye test, in each case 5 mg dye was dissolved in 500 μL ethanol and diluted to 2 mL with BSS Plus solution as the stock solution, and then correspondingly further diluted. As an alternative, one can prepare stock solutions of the dye by dissolving, for example, 5 mg dye in 1 mL distilled water, adding 7 mL BSS solution and then combining with 1 mL NaCl solution having an osmolality of 620 (approximately 2%) in order to restore the original osmolality of the BSS solution (308). This stock solution can be correspondingly further diluted with BSS solution as required. Enucleated porcine eyes were used having a post mortem time period of a few hours. To dye the lens capsule, the cornea was first removed. Thereafter, the iris was resected and the capsular support was severed. The lens with intact lens capsule was removed and placed in a bowl filled with BSS. The lenses were thereafter incubated with the dyes according to the invention at various concentrations and then rinsed after one minute. The dye pattern was photographically documented, whereby the coloration was assessed without additional illumination, and fluorescence was assessed with illumination (Xenon lamp, halogen lamp with typical endoillumination source and fiber optics). The lens capsule is a very good model for dyeing due to the fact that it is a basal membrane, as is the ILM of the retina. Both structures are important target structures in eye surgery.

[3] = Solid cyanine dye stability comparison; assay type: physicochemical; conditions: storage
Excerpt: Decomposition of the solid dye results in a red coloration of the solid and the solution. Carboxylic acid esters, especially methyl ester, are particularly sensitive in addition to the bromides.

[4] = test system: internal limiting membrane (ILM); conditions: literature experiments; cited from earlier work
[5] = test system: retina; conditions: cited from earlier work
[6] = Solid cyanine dye stability comparison; assay type: physicochemical; conditions: after work-up, forming a yellow color

Row | Compound | melting point | Fluorescence quantum yield [1] | Stability [3] | coloration of lens capsule ([2]; dye concentration 0.5%) | coloration of lens capsule ([2]; dye concentration 1.0) | also measured
1 | CC1(C)C(/C=C/C=C2\N(CCCCS(=O)(=O)O)c3ccc4ccccc4c3C2(C)C)=[N+](CCCCS(=O)(=O)[O-])c2ccc3ccccc3c21 (as salt: bromide) [Dye 3t, 3,3′-Di-(4-sulfobutyl)-1,1,1′,1′-tetramethyl-1H-dibenzo[e]indocarbocyanine bromide] | > 250 °C |  |  |  |  | 
2 | CC1(C)C(/C=C/C=C/C=C/C=C2\N(CCCCS(=O)(=O)O)c3ccc4ccccc4c3C2(C)C)=[N+](CCCCS(=O)(=O)[O-])c2ccc3ccccc3c21 [ICG, indocyanine green] |  |  |  |  |  | staining of the ILM [4]: Selective staining; toxic effect on the retina [5]: toxic effect on the retina which is difficult to control
3 | CC1(C)C(=CC=CC2=[N+](CCCCCCCCCCS(=O)(=O)O)c3ccc4ccccc4c3C2(C)C)N(CCCCCCCCCCS(=O)(=O)O)c2ccc3ccccc3c21.[Br-] [Dye 3v, 3,3′-Di-(10-sulfodecyl)-1,1,1′,1′-tetramethyl-1H-dibenzo[e]indocarbocyanine bromide] |  | 0.14 | No decomposition after 4 months | − | − | 
4 | 3,3′-Di-(10-bromodecyl)-1,1,1′,1′-tetramethyl-1H-disulfobenzo[e]indocarbocyanine bromide [Dye 6i] |  | 0.13 | Decomposition after 2 days | decomposed | decomposed | 
5 | CC1(C)C(/C=C/C=C2\N(CCCCS(=O)(=O)O)c3ccc4ccccc4c3C2(C)C)=[N+](CCCCS(=O)(=O)[O-])c2ccc3ccccc3c21 [Dye 3t, 3,3′-Di-(4-sulfobutyl)-1,1,1′,1′-tetramethyl-1H-dibenzo[e]indocarbocyanine bromide] |  | 0.32 | No decomposition after 3 years | +++ |  | coloration of lens capsule ([2]; dye concentration 0.0025%): −; coloration of lens capsule ([2]; dye concentration 0.025%): +; coloration of lens capsule ([2]; dye concentration 0.25%): ++
6 | CC1(C)C(/C=C/C=C2\N(CCC(=O)O)c3ccc4ccccc4c3C2(C)C)=[N+](CCC(=O)O)c2ccc3ccccc3c21.[Br-] (hydrate or solvate) [Dye 3a, 3,3′-Di-(2-carboxyethyl)-1,1,1′,1′-tetramethyl-1H-dibenzo[e]indocarbocyanine bromide] | 199 °C |  |  |  |  | 
7 | 3,3′-Di-(5-brompentyl)-1,1,1′,1′-tetramethyl-1H-disulfobenzo[e]indocarbocyanine bromide [Dye 6h] |  | 0.19 | Decomposition after a few days | decomposed | decomposed | 

Second part, led by results:

Row | melting point | Fluorescence quantum yield [1] | Stability [3] | Compound | coloration of lens capsule ([2]; dye concentration 0.5%) | coloration of lens capsule ([2]; dye concentration 1.0) | also measured
8 | > 150 °C (dec.) | 0.25 | Decomposition after 1 month | COC(=O)CCCCCCCCCCN1/C(=C\C=C\C2=[N+](CCCCCCCCCCC(=O)OC)c3ccc4c(S(=O)(=O)O)cccc4c3C2(C)C)C(C)(C)c2c1ccc1c(S(=O)(=O)O)cccc21.[Br-] [Dye 6d, 3,3′-Di-(10-methoxycarbonyldecyl)-1,1,1′,1′-tetramethyl-1H-disulfobenzo[e]indocarbocyanine bromide] | decomposed | decomposed | 
9 | > 150 °C |  |  | CC1(C)C(/C=C/C=C2\N(CCCCS(=O)(=O)[O-])c3ccc4c(S(=O)(=O)O)cccc4c3C2(C)C)=[N+](CCCCS(=O)(=O)O)c2ccc3c(S(=O)(=O)O)cccc3c21 (as salt: bromide) [Dye 6a, 3,3′-Di-(4-sulfobutyl)-1,1,1′,1′-tetramethyl-1H-disulfobenzo[e]indocarbocyanine bromide] |  |  | 
10 | > 150 °C (dec.) | 0.18 | Decomposition after 2 months | CCOC(=O)CCN1/C(=C\C=C\C2=[N+](CCC(=O)OCC)c3ccc4c(S(=O)(=O)O)cccc4c3C2(C)C)C(C)(C)c2c1ccc1c(S(=O)(=O)O)cccc21.[Br-] [Dye 6e, 3,3′-Di-(2-ethoxycarbonylethyl)-1,1,1′,1′-tetramethyl-1H-disulfobenzo[e]indocarbocyanine bromide] | decomposed | decomposed | 
11 | > 150 °C (dec.) | 0.22 | No decomposition after 3 months | CCOC(=O)CCCCCN1/C(=C\C=C\C2=[N+](CCCCCC(=O)OCC)c3ccc4c(S(=O)(=O)O)cccc4c3C2(C)C)C(C)(C)c2c1ccc1c(S(=O)(=O)O)cccc21.[Br-] [Dye 6g, 3,3′-Di-(5-ethoxycarbonylpentyl)-1,1,1′,1′-tetramethyl-1H-disulfobenzo[e]indocarbocyanine bromide] | ++ | ++ | 
12 | > 150 °C (dec.) | 0.11 | Decomposition after 2 months | CCOC(=O)CCCCN1/C(=C\C=C\C2=[N+](CCCCC(=O)OCC)c3ccc4c(S(=O)(=O)O)cccc4c3C2(C)C)C(C)(C)c2c1ccc1c(S(=O)(=O)O)cccc21.[Br-] [Dye 6f, 3,3′-Di-(4-ethoxycarbonylbutyl)-1,1,1′,1′-tetramethyl-1H-disulfobenzo[e]indocarbocyanine bromide] | decomposed | decomposed | decomposition of the dye after preparation [6]: decomposes as soon as after one day
13 | > 150 °C (dec.) | 0.31 | No decomposition after 3 months | CC1(C)C(/C=C/C=C2\N(CCCCCCCCCCC(=O)O)c3ccc4c(S(=O)(=O)O)cccc4c3C2(C)C)=[N+](CCCCCCCCCCC(=O)O)c2ccc3c(S(=O)(=O)O)cccc3c21.[Br-] [Dye 6c, 3,3′-Di-(10-carboxydecyl)-1,1,1′,1′-tetramethyl-1H-disulfobenzo[e]indocarbocyanine bromide] | ++ | ++ | 
14 | > 150 °C (dec.) | 0.20 |  | CCCCCN1/C(=C\C=C\C2=[N+](CCCCC)c3ccc4ccccc4c3C2(C)C)C(C)(C)c2c1ccc1ccccc21.[Br-] [Dye 6j, 3,3′-Di-(pentyl)-1,1,1′,1′-tetramethyl-1H-dibenzo[e]indocarbocyanine bromide] |  |  | 
15 | > 180 °C (dec.) | 0.21 | Decomposition after a few days | CC1(C)C(/C=C/C=C2\N(CCC(=O)O)c3ccc4c(S(=O)(=O)O)cccc4c3C2(C)C)=[N+](CCC(=O)O)c2ccc3c(S(=O)(=O)O)cccc3c21.[Br-] [Dye 6b, 3,3′-Di-(2-carboxyethyl)-1,1,1′,1′-tetramethyl-1H-disulfobenzo[e]indocarbocyanine bromide] | +++ | +++ | 
